{
  "source": "patent US8946301B2",
  "about": "“Targeting of T-lymphocytes to treat amyotrophic lateral sclerosis” (ALS Therapy Development Institute, priority 2011, dated 2015)",
  "key": {"[1]": {"test_system": "CD11b positive macrophages", "assay": "Macrophage infiltration into gastrocnemius muscle / peripheral axons (anti-CD11b staining)", "format": "in vivo, mouse", "conditions": "SOD1 animals, load 2.5 mg/kg then 1.8 mg/kg oral weekly from day 50, gastrocnemius at day 100, vs untreated SOD1", "method": "SOD1 animals were treated with a loading dose of 2.5 mg/kg fingolimod, followed by weekly oral dosing of 1.8 mg/kg. Dosing was initiated at 50 days of age for the three cohorts: • 1) Non transgenic controls • 2) untreated SOD1 • 3) SOD1 Fingolimod Treated “High Dose” (Load 2.5 mg/kg, 1.8 mg/kg Oral q7d)\nGastrocnemius muscle was harvested from non-transgenic control, untreated SOD1 and fingolimod treated animals at 100 days of age. Tissues were immediately embedded in OCT after harvesting. Frozen sections were H&E stained and hybridized with antibodies to detect macrophages (αCD11b antibody)."}, "[2]": {"assay": "Pharmacokinetic profile of fingolimod in plasma and spinal cord of SOD1 mice", "format": "in vivo", "conditions": "G93A-SOD1 transgenic, mouse, male SOD1 mice, single IP bolus 6.7 mg/kg", "method": "FIG. 1A is a chart showing the plasma pharmacokinetic profile for fingolimod in male SOD1 mice after a single IP bolus 6.7 mg/kg.\nFIG. 1B is a chart showing the spinal cord pharmacokinetic profile for fingolimod in male SOD1 mice after a single IP bolus 6.7 mg/kg.\nThe pharmacokinetic study provided reagent distribution and elimination parameters in order to guide future in vivo studies. […] Because of the longer than usual half-life of fingolimod, the time points for PK harvest extended beyond the typical 9 point small molecule PK study executed at ALS Therapy Development Institute (ALSTDI, Cambridge, Mass.). Time points included 0, 0.083 hours, 0.25 hours, 0.5 hours, 0.75 hours, 1 hour, 2 hours, 4 hours, 6 hours, 8 hours, 12 hours, 24 hours, 48 hours, 72 hours, and 96 hours.\nG93A-SOD1 transgenic mice (shortened to “SOD1 mice”) are mutant for superoxide dismutase 1 (SOD1) and are used as a disease model because of the phenotypic and pathologic resemblance to sporadic and familial human ALS. The SOD1 mice overexpress the superoxide dismutase, CCS, to develop an accelerated disease course that is associated with enhanced mitochondrial pathology and increased mitochondrial localization of mutant SOD1. The results of the fingolimod concentration studies were consistent with published reports for fingolimod in other tissues and models. Tissues analyzed included plasma (FIG. 1A) and spinal cord (FIG. 1B). Fingolimod treated animals were then divided into two groups using two separate doping regimens: • Low Dose Fingolimod Group: IP Load 0.44 mg/kg, Maintenance 0.32 mg/kg every 7 days (q7d), and • High Dose Fingolimod Group: IP Load 2.5 mg/kg, Maintenance 1.8 mg/kg q7d."}, "CD4+ lymphocytes": {"test_system": "CD4+ lymphocytes", "assay": "FACS analysis of circulating CD4+ lymphocytes in whole blood of SOD1 mice", "format": "in vivo, mouse", "conditions": "for CD4+ cells in whole blood: 4 hours after third dose, control approximately 12%", "method": "FIG. 3B is a FACS analysis showing the reduction of CD4+ lymphocytes in the circulation of male SOD1 mice that received fingolimod treatment. Dosing of fingolimod and time points were the same as in FIG. 3A.\nThe following dosage regimen was used to determine the dose dependent effects of fingolimod in SOD1 mice: • Cohorts: • 1) SOD1 Fingolimod Treated “High Dose” (Load 2.5 mg/kg, 1.8 mg/kg Oral q7d) • 4 hour post final dose harvest • 7 day post final dose harvest • 2) SOD1 Fingolimod Treated “Low Dose” (Load 0.44 mg/kg, 0.32 mg/kg Oral q7d) • 4 hour post final dose harvest • 7 day post final dose harvest • 3) SOD1 Vehicle Control • 4 hour post final dose harvest • 7 day post final dose harvest\nThe predicted plasma fingolimod load for both the high dose and the low dose regimes were determined, see FIGS. 2A and 2B. Tissues were harvested 4 hours after the third fingolimod dose. This time point was selected to best characterize the behavior of lymphocytes in animals treated with fingolimod when circulating levels of the drug are near peak concentration."}, "[3]": {"conditions": "cited from earlier work"}, "[4]": {"test_system": "lymphocytes in the spleen", "assay": "Lymphocyte cell counts in spleen by FACS", "format": "in vivo, mouse", "conditions": "vs untreated SOD1", "method": "FIG. 5 is a graph showing cell counts in spleens of animals. SOD1 animals received a loading dose of 2.5 mg/kg fingolimod orally, then oral 1.8 mg/kg once weekly for 3 weeks. Lymphocyte counts were measured via FACS for various cell surface antigens in the spleen.\nLymphocytes were also measured in the spleens of SOD1 fingolimod treated mice and untreated SOD1 mice. After sacrifice, spleens were harvested from each animal and subjected to fluorescent activated cell sorting for each of the cell surface antigens: CD11b, CD28, CD3, CD4, CD86, […], and LY6G."}, "[5]": {"conditions": "whole blood, vs vehicle control"}},
  "note": "Entries after “also recorded” stand apart in the source; their conditions may differ. Where two headings read alike, the source gives them in different places.",
  "data": [
    {"smiles": "CCCCCCCCc1ccc(CCC(N)(CO)CO)cc1", "note": "[fingolimod, 2-amino-2-(4-octylphenethyl)propane-1,3-diol]", "values": [
      {"measurement": "CD11b positive macrophages infiltrating the skeletal muscle / peripheral axons", "setting": "[1]", "result": "significantly fewer"},
      {"measurement": "CD11b positive macrophages infiltrating the skeletal muscle / peripheral axons", "setting": "[1]; listed as Fingolimod", "result": "ability to block macrophage infiltration into peripheral axons"},
      {"measurement": "Cmax", "setting": "[2]; plasma, read-out: plasma Cmax", "result": 185, "unit": "ng/mL"},
      {"measurement": "half-life", "setting": "[2]; plasma, read-out: plasma half-life (converted)", "result": 31.4, "unit": "h"},
      {"measurement": "Cmax", "setting": "[2]; spinal cord, read-out: spinal cord Cmax", "result": 630, "unit": "ng/mL"},
      {"measurement": "half-life", "setting": "[2]; spinal cord, read-out: spinal cord half-life (converted)", "result": 89.2, "unit": "h"},
      {"measurement": "circulating CD4 positive cells in whole / peripheral blood (in words)", "setting": "CD4+ lymphocytes; SOD1 animals, high and low dose groups", "result": "fewer; also recorded: transiently depletes"},
      {"measurement": "CD4+ cells in whole blood", "setting": "CD4+ lymphocytes; high dose (load 2.5 mg/kg, 1.8 mg/kg q7d)", "result": "approximately 5%"},
      {"measurement": "CD4+ cells in whole blood", "setting": "CD4+ lymphocytes; low dose (load 0.44 mg/kg, 0.32 mg/kg q7d)", "result": "approximately 5%"},
      {"measurement": "reduction in CD4+ cells", "setting": "CD4+ lymphocytes; [5]", "result": "at least 50%"},
      {"measurement": "reduction in CD4+ cells (fold)", "setting": "CD4+ lymphocytes; [5]", "result": "over two-fold"},
      {"measurement": "CNS penetration and localization", "setting": "[3]; Foster et al. 2007", "result": "CNS penetrant and localizes in the CNS white matter"},
      {"measurement": "brain/plasma ratio (in words)", "setting": "[3]; Meno-Tetang 2006", "result": "high"},
      {"measurement": "plasma half-life (in words)", "setting": "[3]; Meno-Tetang 2006", "result": "relatively long"},
      {"measurement": "lymphocyte count, CD11b", "setting": "[4]; load 2.5 mg/kg oral then 1.8 mg/kg once weekly for 3 weeks", "result": "decreased lymphocyte count"},
      {"measurement": "lymphocyte count, CD3", "setting": "[4]; same regimen", "result": "decreased lymphocyte count"},
      {"measurement": "lymphocyte count, CD4", "setting": "[4]; same regimen", "result": "decreased lymphocyte count"},
      {"measurement": "lymphocyte count, CD28", "setting": "[4]; same regimen", "result": "decreased lymphocyte count"},
      {"measurement": "lymphocyte count, CD86", "setting": "[4]; same regimen", "result": "decreased lymphocyte count"},
      {"measurement": "lymphocyte count, CTLA34", "setting": "[4]; same regimen", "result": "decreased lymphocyte count"},
      {"measurement": "lymphocyte count, LY6G", "setting": "[4]; same regimen", "result": "decreased lymphocyte count"}
    ]}
  ]
}
